Where two headings read alike, the source gives them in different places.

1 molecule from article PMC8708751, “Hit Identification of a Novel Quinazoline Sulfonamide as a Promising EphB3 Inhibitor: Design, Virtual Combinatorial Library, Synthesis, Biological Evaluation, and Docking Simulation Studies” (Pharmaceuticals, 2021) can be followed below.

The target in one series is T1, EphB3 kinase (Homo sapiens, UniProt P54753).
T1 construct: purchased Reaction Biology Co. (Kinase HotSpot service)
T1 sequence (P54753 34-998): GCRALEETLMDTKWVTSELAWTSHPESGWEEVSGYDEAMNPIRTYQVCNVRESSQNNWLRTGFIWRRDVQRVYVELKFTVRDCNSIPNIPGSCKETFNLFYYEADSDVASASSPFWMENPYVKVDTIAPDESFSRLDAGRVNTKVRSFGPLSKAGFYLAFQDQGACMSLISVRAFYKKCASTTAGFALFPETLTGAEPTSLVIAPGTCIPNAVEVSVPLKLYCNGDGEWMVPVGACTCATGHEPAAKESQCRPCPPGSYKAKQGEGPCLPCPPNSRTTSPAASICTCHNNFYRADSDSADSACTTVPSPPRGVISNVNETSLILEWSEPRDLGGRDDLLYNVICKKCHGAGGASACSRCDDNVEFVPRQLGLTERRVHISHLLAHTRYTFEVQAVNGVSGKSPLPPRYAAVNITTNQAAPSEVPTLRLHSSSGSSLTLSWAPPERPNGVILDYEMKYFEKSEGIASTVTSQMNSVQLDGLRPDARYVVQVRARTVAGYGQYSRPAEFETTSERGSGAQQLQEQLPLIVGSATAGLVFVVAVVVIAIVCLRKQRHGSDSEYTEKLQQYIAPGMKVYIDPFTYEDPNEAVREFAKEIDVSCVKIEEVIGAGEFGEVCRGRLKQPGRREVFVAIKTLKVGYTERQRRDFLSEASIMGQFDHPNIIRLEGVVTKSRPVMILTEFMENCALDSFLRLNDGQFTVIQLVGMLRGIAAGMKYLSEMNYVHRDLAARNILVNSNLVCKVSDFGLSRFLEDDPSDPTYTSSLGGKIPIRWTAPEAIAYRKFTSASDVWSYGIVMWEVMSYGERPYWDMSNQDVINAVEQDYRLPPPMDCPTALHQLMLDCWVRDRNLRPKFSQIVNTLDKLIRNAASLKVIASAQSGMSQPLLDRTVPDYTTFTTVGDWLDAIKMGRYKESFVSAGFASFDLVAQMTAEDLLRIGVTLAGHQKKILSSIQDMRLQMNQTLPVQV
The series is described as follows: EphB3 kinase inhibition assay (HotSpot). It counts as biochemical. As to the method: The synthesized compounds were subjected to in vitro screening over EphB3 kinase. A single dose of 10 µM concentration of each target compound was used in EphB3 kinase inhibition assay, at 10 µM ATP, applying HotSpot^SM technology.
(§1) The HotSpot assay platform contains specific kinase/substrate pairs along with required cofactors. Base reaction buffer: 20 mM Hepes (pH 7.5), 10 mM MgCl2, 1 mM EGTA, 0.02% Brij35, 0.02 mg/mL BSA, 0.1 mM Na3VO4, 2 mM DTT, 1% DMSO. The tested compounds were dissolved in 100% DMSO to specific concentration. The serial dilution was conducted by Integra Viaflo Assist in DMSO (Sigma-Aldrich, Burlington, MA, USA). The reaction mixture containing the examined compound and 33P-ATP was incubated at room temperature for 2 h, and radioactivity was detected by filter-binding method. Kinase activity data were expressed as the percent remaining kinase activity in test samples compared to vehicle (dimethyl sulfoxide) reactions. IC50 values and curve fits were obtained using Prism (GraphPad Software, San Diego, CA, USA).

The next series deals with T2, ERBB2/HER2 (Homo sapiens, UniProt P04626).
T2 construct: purchased Reaction Biology Co. (Kinase HotSpot service)
The series is described as follows: Kinase panel assay, ERBB2/HER2. The series is classed as biochemical. Conditions: ERBB2/HER2, 10 µM; read-out: Average % Enzyme Inhibition (Relative to DMSO Controls) at 10 µM. How it is done:
as §1, with “The screening of the tested compounds was performed using the Kinase HotSpot^SM service from Reaction Biology Co. (http://www.reactionbiology.com, accessed on 25 September 2021). The HotSpot” for “The HotSpot”

T2 sequence (P04626 23-1255): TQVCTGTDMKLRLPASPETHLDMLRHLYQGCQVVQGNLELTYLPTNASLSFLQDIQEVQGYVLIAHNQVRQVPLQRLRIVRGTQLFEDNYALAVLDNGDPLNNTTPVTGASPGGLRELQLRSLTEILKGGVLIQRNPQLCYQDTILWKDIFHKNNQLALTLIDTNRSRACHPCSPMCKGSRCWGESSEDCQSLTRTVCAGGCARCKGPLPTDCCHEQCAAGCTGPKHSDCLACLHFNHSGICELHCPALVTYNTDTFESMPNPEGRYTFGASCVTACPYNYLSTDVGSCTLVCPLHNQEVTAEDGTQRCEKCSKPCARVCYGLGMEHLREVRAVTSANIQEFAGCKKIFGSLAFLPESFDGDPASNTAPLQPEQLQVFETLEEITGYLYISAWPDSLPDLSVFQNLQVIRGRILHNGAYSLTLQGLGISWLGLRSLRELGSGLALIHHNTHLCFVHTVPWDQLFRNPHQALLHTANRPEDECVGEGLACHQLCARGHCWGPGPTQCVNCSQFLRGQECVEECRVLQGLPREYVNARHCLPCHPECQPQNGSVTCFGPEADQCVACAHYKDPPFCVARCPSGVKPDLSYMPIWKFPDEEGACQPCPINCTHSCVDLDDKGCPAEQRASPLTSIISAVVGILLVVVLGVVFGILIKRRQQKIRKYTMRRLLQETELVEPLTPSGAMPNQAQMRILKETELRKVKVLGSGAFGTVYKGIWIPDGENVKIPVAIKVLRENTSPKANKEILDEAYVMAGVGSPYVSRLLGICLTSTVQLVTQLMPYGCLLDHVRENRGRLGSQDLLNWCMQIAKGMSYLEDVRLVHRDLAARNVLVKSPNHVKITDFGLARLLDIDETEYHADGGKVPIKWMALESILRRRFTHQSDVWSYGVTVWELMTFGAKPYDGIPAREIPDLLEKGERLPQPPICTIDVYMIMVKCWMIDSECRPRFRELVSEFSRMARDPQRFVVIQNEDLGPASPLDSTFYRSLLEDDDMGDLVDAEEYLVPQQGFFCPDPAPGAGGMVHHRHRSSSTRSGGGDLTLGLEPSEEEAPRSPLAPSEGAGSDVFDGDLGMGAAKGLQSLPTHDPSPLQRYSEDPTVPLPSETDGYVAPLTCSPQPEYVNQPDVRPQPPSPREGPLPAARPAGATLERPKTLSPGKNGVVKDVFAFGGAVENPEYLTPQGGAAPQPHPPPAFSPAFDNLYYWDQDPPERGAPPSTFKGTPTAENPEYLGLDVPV

For `NS(=O)(=O)c1ccc(Nc2ncnc3ccc(-c4cccc(O)c4)cc23)cc1` [Compound 4c, 4-((6-(3-Hydroxyphenyl)quinazolin-4-yl)amino)benzenesulfonamide], the melting point (commonly the temperature of the solid-liquid transition) is 313.2 to 315.1 °C. In addition, the inhibition (as a rule, the share of the control response that was lost under treatment) at 10 µM on EphB3 kinase (EphB3 kinase, 10 µM compound, 10 µM ATP, read-out: Average % Enzyme Inhibition at 10 µM (Relative to DMSO Control)) is above 93%. Also, the IC50 (usually the concentration at which inhibition is half-maximal) at EphB3 kinase (EphB3 kinase, dose dependent assay, read-out: IC50) was 1.04 µM. Further, the IC50 on EphB3 kinase (EphB3 kinase, read-out: EC50 of the curve fit printed in Figure 5 (IC50 per legend)) turned out to be 1.04 µM. In addition, the “selectivity for EphB3 over EphB1 isoform” value at EphB3 kinase (from IC50 values, EphB3 over EphB1) is recorded as “six”. In addition, at ERBB2/HER2, the inhibition at 10 µM was 67.8 ± 0.99%.
